Consider 1 compound from patent publication US20090202660A1, “Agents and Methods for Osteogenic Oxysterols Inhibition of Oxidative Stress on Osteogenic Cellular Differentiation” (The Regents of the University of California, priority 2005, published 2009).

Molecules are shown by their SMILES.

The subject of experiment [1] is M2-10B4 marrow stromal cells. The experiment is described as follows: Matrix mineralization (45Ca incorporation assay, von Kossa staining). The experiment is classed as cell-based, mouse. Particulars: M2 cells in osteogenic medium, 10-14 days. On the procedure:
(§1) Von Kossa and oil red O staining—Matrix mineralization in cell monolayers was detected by silver nitrate staining as previously described. Oil red O staining for detection of adipocytes was performed as previously described.
^45Ca incorporation assay—Matrix mineralization in cell monolayers was quantified using the ^45Ca incorporation assay as previously described.
After 14 days, mineralization was identified by a von Kossa staining, which appears black. FIG. 3C is a depiction of von Kossa staining of M2 cells exposed to various conditions. […]

For a further experiment, the system named is osteocalcin mRNA. The experiment is described as follows: Northern blotting for osteocalcin mRNA in M2 cells. The conditions noted are these: M2 cells in osteogenic medium, up to 14 days. The experiment is classed as cell-based, mouse. On the procedure: RNA isolation and Northern blot analysis—Following treatment of cells under appropriate experimental conditions, total RNA was isolated using the RNA isolation kit from Stratagene (La Jolla, Calif., U.S.A.). Total RNA ([…]) was run on a 1% agarose/formaldehyde gel and transferred to Duralon-UV membranes (Strategene, Calif., U.S.A.) and cross-linked with UV light. The membranes were hybridized overnight at 60 degree C. with ^32P-labeled mouse osteocalcin cDNA probe, mouse lipoprotein lipase (LPL), mouse adipocyte protein 2 (aP2) PCR-generated probes, human 28S or 18S rRNA probes obtained from Geneka Biotechnology (Montreal, Quebec, Canada) and Maxim Biotech (San Francisco, Calif., U.S.A.), respectively. The PCR products were generated using primer sets synthesized by Invitrogen (Carlsbad, Calif., U.S.A.) with the following specifications: mouse aP2 gene (accession no. M13261); sense (75-95) 5′-[…]-3′, antisense (362-383) 5′-[…]-3′, generating a PCR product of 309 base pairs. Mouse LPL (accession no. XM—134193); sense (1038-1058) 5′-[…]-3′, antisense (1816-1836) 5′-[…]-3′, generating a PCR product of 799 base pairs. […] Following hybridization, the blots were washed twice at room temperature with 2×SSC+0.1% SDS, and then twice at 60 degree C. with 0.5×SSC+0.1% SDS, and exposed to X-ray film. The extent of gene induction was determined by densitometry.
After 4 and 8 days, total RNA from duplicate samples was isolated and analyzed for osteocalcin (Osc) and 28S rRNA expression by Northern blotting as described. FIG. 3E is a radiogram of Northern blotting for osteocalcin mRNA in M2 cells exposed to a control or combination of oxysterols for 4 or 8 days. FIG. 3F is a bar graph depicting the relative demsometric units of osteocalcin mRNA in M2 cells exposed to a control or combination of oxysterols for 4 or 8 days. Data from densitometric analysis of the Northern blot is shown in (F) as the average of duplicate samples, normalized to 28S rRNA.
RNA Isolation and Northern Blot Analysis—Total RNA was isolated using the RNA isolation kit from Stratagene (La Jolla, Calif., USA). Northern blotting and analysis of osteocalcin mRNA and 18S rRNA expression was performed as previously described (23).

The next experiment deals with M2 cells. The experiment is described as follows: Troglitazone-induced adipogenesis, oil Red O staining and adipocyte count. Particulars: troglitazone 10 μM, oxysterols 10 μM, 8-10 days. Type of experiment: cell-based, mouse. The method, then: as §1
Test 1: M2 cells at 90% confluence were treated with vehicle (C), PPAR-γ activator, troglitazone 10 uM (Tro), alone or in combination with 10 μM oxysterols 20S-, 22R-, or 25S-hydroxycholesterol. After 8 days, adipocytes were identified by oil Red 0 staining and quantified by counting under a phase contrast microscope. FIG. 6A is a bar graph depicting the effect of oxysterols on reducing adipogenesis of MSC.
Test 2: (A) M2 cells at confluence were treated in RPMI containing 10% FBS with control vehicle or 10 μM troglitazone (Tro) in the absence or presence of 10 μM 20S or 22S oxysterols. After 10 days, adipocytes were visualized by oil Red O staining and quantified by light microscopy, shown in (B). […] (C) M2 cells were treated at confluence with 10 μM Tro, alone or in combination with 10 μM 20S oxysterol. After 10 days, total RNA was isolated and analyzed for lipoprotein lipase (LPL), adipocyte P2 gene (aP2) or 18S rRNA expression by Northern blotting as described (Ref). Data from densitometric analysis of the Northern blot is shown in (D) as the average of duplicate samples, normalized to 18S rRNA.

Experiment [2] relates to lipoprotein lipase (LPL) and adipocyte P2 gene (aP2). The experiment is described as follows: Northern blotting for adipogenic genes in M2 cells. Particulars: 10 μM Tro with 10 μM 20S, 10 days. Type of experiment: cell-based, mouse. On the procedure: RNA isolation and Northern blot analysis—Following treatment of cells under appropriate experimental conditions, total RNA was isolated using the RNA isolation kit from Stratagene (La Jolla, Calif., U.S.A.). Total RNA ([…]) was run on a 1% agarose/formaldehyde gel and transferred to Duralon-UV membranes (Strategene, Calif., U.S.A.) and cross-linked with UV light. The membranes were hybridized overnight at 60 degree C. with ^32P-labeled mouse osteocalcin cDNA probe, mouse lipoprotein lipase (LPL), mouse adipocyte protein 2 (aP2) PCR-generated probes, human 28S or 18S rRNA probes obtained from Geneka Biotechnology (Montreal, Quebec, Canada) and Maxim Biotech (San Francisco, Calif., U.S.A.), respectively. […] The extent of gene induction was determined by densitometry.
Test 2: (A) M2 cells at confluence were treated in RPMI containing 10% FBS with control vehicle or 10 μM troglitazone (Tro) in the absence or presence of 10 μM 20S or 22S oxysterols. After 10 days, adipocytes were visualized by oil Red O staining and quantified by light microscopy, shown in (B). […] After 10 days, total RNA was isolated and analyzed for lipoprotein lipase (LPL), adipocyte P2 gene (aP2) or 18S rRNA expression by Northern blotting as described (Ref). […]

The subject of a further experiment is ERK1 and ERK2. The experiment is described as follows: Western blot for native and phosphorylated ERK in M2 cells. The experiment is classed as cell-based, mouse. Particulars: 5 μM, 1, 4 or 8 hours. On the procedure: Western blot analysis—After treatments, cells were lysed in lysis buffer, protein concentrations determined using the Bio-Rad protein assay (Hercules, Calif. U.S.A.), and SDS-PAGE performed as previously described. Probing for native and phosphorylated ERKs was performed as previously reported.
(A) M2 cells at confluence were pretreated for four hours with RPMI containing 1% FBS, followed by treatment with control vehicle or 5 μM 20S oxysterol for 1, 4, or 8 hours. Next total cell extracts were prepared and analyzed for levels of native or phosphorylated ERK (pERK) using specific antibodies as previously described. Data from a representative of four experiments are shown, each treatment shown in duplicate samples. (B) M2 cells at confluence were pretreated for 2 hours with control vehicle (C) or 20 μM PD98059 (PD) in osteogenic medium as previously described. Next, a combination of 22R and 20S oxysterols (RS, 5 μM each) were added to appropriate wells as indicated. After 10 days of incubation, matrix mineralization was quantified by the ^45Ca incorporation assay as previously described. […] (C) M2 cells at confluence were pretreated for 2 hours with 20 µM PD98059 (PD) in RPMI containing 5% FBS. […] After 10 days, adipocytes were visualized by oil Red O staining and quantified by light microscopy as previously described. […]
For orientation: A western blot detects proteins with antibodies after separation by electrophoresis.

Experiment [3] has as its system M2-10B4 marrow stromal cells. The experiment is described as follows: Colorimetric alkaline phosphatase (ALP) activity assay on whole cell extracts.
Description: Alkaline phosphatase activity assay: Colorimetric alkaline phosphatase (ALP) activity assay on whole cell extracts was performed as previously described.
Test 1: M2 cells at confluence were treated with control vehicle (C), or 10 µM oxysterols, in an osteogenic medium consisting of RPMI 1640 to which 10% fetal bovine serum (FBS), 50 µg/ml ascorbate and 3 mM beta-glycerophosphate (□GP) were added. After 3 days of incubation, alkaline phosphatase (ALP) activity was determined in cell homogenates by a colorimetric assay.
M2 cells at confluence were treated in osteogenic medium with control vehicle (C) or a combination of 22R and 20S oxysterols, at the indicated concentrations. ALP activity was measured after 3 days as described above.
Test 2: M2 cells were grown in RPMI medium containing 10% fetal bovine serum (FBS). At confluence, the cells were treated in RPMI containing 5% FBS plus ascorbate at 50 μg/ml and β-glycerophosphate at 3 mM to induce osteoblastic differentiation. Adipogenic differentiation was induced by treating the cells in growth medium plus 10˜M troglitazone. A vehicle (C) or oxysterol treatment was applied to cells in a variety of doses (in μM): 20S-Hydroxycholesterol, 25-Hydroxycholesterol, 22R-Hydroxycholesterol; 22S-Hydroxycholesterol; 7-ketocholesterol. Cells were always treated at 90% confluence. After 4 days, alkaline phosphatase activity was determined in whole cell lysates and normalized to protein. Alternatively, MSC cultures were prepared and treated with oxysterols as described above. Cells were treated at 90% confluence with the combination of 22R-Hydroxycholesterol and 20S-Hydroxycholesterol, each at 5 μM, for 4 to 96 hours. The oxysterols where removed and fresh media without oxysterols was added for a total duration of 96 hours. Alkaline phosphatase activity was measured in whole cell extracts and normalized to protein.
Cells were treated with the oxysterols (5 μM) for 4 days after which they were collected and analyzed by colorimetric assay for alkaline phosphatase activity. Results from a representative experiment are shown as the average of quadruplicate determination ±SD.

Regarding `CC(C)CCC[C@](C)(O)[C@H]1CC[C@H]2[C@@H]3CC=C4C[C@@H](O)CC[C@]4(C)[C@H]3CC[C@@]21C` [20S-hydroxycholesterol], the mineralization entry in experiment [1] is on record as “unable to induce”. Besides, the osteocalcin gene expression entry with osteocalcin mRNA was “unable to induce”. In the experiment on M2 cells, the inhibition of adipogenesis result is on record as “inhibited adipogenesis”. Also, the “expression of the adipogenic genes LPL and aP2” value in experiment [2] is on record as “inhibition of the expression”. The “activation of ERK1 and ERK2” value in the experiment with ERK1 and ERK2 was “sustained activation”. The “alkaline phosphatase activity (induction)” value in experiment [3] (M2 cells in osteogenic medium, oxysterols 0.5-10 μM, 3-4 days) is recorded as “induced alkaline phosphatase activity”. This compound also showed an alkaline phosphatase activity in experiment [3] (M2 cells, ligands used at 10 μM, control 18±2, ±SD) of 140±12 activity units/mg protein.
